In US7863293B2, “CXCR4 chemokine receptor binding compounds” (Genzyme Corporation, priority 2003, dated 2011):
Read-outs that look alike come from different tables or passages of the source.

Legend:
white blood cells = details: human volunteers; 80 μg/kg s.c.
Experimental: (§1) Five healthy human volunteers having initial white blood cell counts of 4,500-7,500 cells/mm^3 were used in the study. […] Blood samples were obtained via catheter prior to the dose, and at various times up to 24 hours after dosing.
The blood samples were evaluated for total white blood cells, CD34 positive progenitor cells (via FACS analysis) as a percentage of total white blood cells, as well as the absolute numbers per mL and cycling status of granulocyte macrophage (CFU-GM), erythroid (BFU-E), and multipotential (CFU-GEMM) progenitor cells.

CFU-GM progenitor cells = details: average of 5 donors, 80 μg/kg s.c.
Experimental: as §1
(§2) All progenitor cell results are based on the scoring of 3 culture plates per assay per point.
(§3) For the progenitor cell numbers and cycling status, the numbers of CFU-GM, BFU-E and CFU-GEMM in methylcellulose cultures by stimulation of the cells with 1 Unit (U)/ml recombinant human (rhu) erythropoietin, 100 U/ml rhu granulocyte-macrophage colony stimulating factor (GM-CSF), 100 U/ml rhu interleukin-3 (IL-3) and 50 ng/ml rhu steel factor (SLF=stem cell factor (SCF)). The CFU-GM were also evaluated in agar cultures stimulated with 100 U/ml rhu GM-CSF and 50 ng/ml rhu SLF. For both types of assays, colonies were scored after 14 day incubation in a humidified atmosphere with 5% CO2 and lowered (5%) O2 tension. Cell cycling status of progenitors was measured using a high specific activity tritiated thymidine kill technique as previously described (Broxmeyer, H. E., et al., Exp. Hematol. (1989) 17:455-459).

[1] = test system: CFU-GM, BFU-E and CFU-GEMM progenitor cells; details: 80 μg/kg s.c.; for Fold change compared to T = 0, BFU-E, methylcellulose culture, MEAN / Fold change compared to T = 0, CFU-GEMM, methylcellulose culture, MEAN / Fold change compared to T = 0, CFU-GM, methylcellulose culture, MEAN: average of 5 donors
Experimental: as §1, §2, §3

white blood cell count = details: all patients, i.v. 10-80 μg/kg; 5-10 hours after administration
Experimental: Eleven human patients having initial white blood cell counts of 4,000-6,500 cells/mm^3 were used in the study. […] Aliquots from this stock solution were added to 50-ml bags of 0.9% saline for intravenous injection in amounts to achieve the desired dosage levels (10 μg/kg-80 μg/kg).
The subjects described in this example already contained an indwelling peripheral intravenous catheter. […] Blood samples were obtained prior to the dose, and at various times up to 24 hours after dose administration.
Three patients were administered dosages of 10 μg/kg (open circles); 3 patients were administered dosages of 20 μg/kg (solid circles); 3 patients were administered 40 μg/kg (open triangles); and 2 patients were administered 80 μg/kg (closed triangles).

[2] = test system: progenitor cells (CFU-GM, BFU-E, CFU-GEMM) per mL of blood; details: for Absolute Number Progenitors Per ML Blood, BFU-E / Absolute Number Progenitors Per ML Blood, CFU-GEMM / Absolute Number Progenitors Per ML Blood, CFU-GM: 1 hour post administration; for Absolute Progenitors Per ML Blood, BFU-E / Absolute Progenitors Per ML Blood, CFU-GEMM / Absolute Progenitors Per ML Blood, CFU-GM: 5 mg/Kg single s.c.; for Absolute Progenitors Per ML Blood, BFU-E / Absolute Progenitors Per ML Blood, CFU-GEMM / Absolute Progenitors Per ML Blood, CFU-GM / Fold Change Compared to Time 0, progenitors BFU-E / Fold Change Compared to Time 0, progenitors CFU-GEMM / Fold Change Compared to Time 0, progenitors GM: methylcellulose culture; for Fold Change Compared to Time 0, progenitors BFU-E / Fold Change Compared to Time 0, progenitors CFU-GEMM / Fold Change Compared to Time 0, progenitors GM: mice
Experimental: Progenitors were stimulated to form colonies in vitro with the combination of 1 U/ml rhu Epo, 50 ng/ml rhu SLF, 5% ^Vol/Vol pokeweed mitogen mouse spleen cell conditioned medium (PWMSCM), and 0.1 mM hemin. Plates were scored 7 days after incubation.

WBC counts = details: HIV-infected patients; infusion 2.5 or 5.0 μg/kg/hr
[3] = test system: WBC and circulating CD34+ progenitor/stem cells; details: Phase 1 study, single dose of 80 μg/kg; cited from earlier work
bone marrow stem cells = details: rats, coronary ligation; given within hours after cardiac ischemia, with or without rhG-CSF
Experimental: Adult rats are anesthetized and a thoracotomy is performed. The descending branch of the left coronary artery is ligated and not reperfused. […] Control rats are not treated with the reagents. The animals are monitored at one-week intervals by echocardiography and MRI. […] On the day of sacrifice, the hemodynamic functions are analyzed for left ventricle-end diastolic pressure, left ventricle-developed pressure and the rate of rise and fall of left ventricle pressure. The heart is then arrested in diastole and perfused via the abdominal aorta to flush residual blood from the vascular network of the myocardium. […] Several slices are made through the fixed heart and these are embedded in paraffin and sections. The sections are stained and analyzed by light microscopy to determine the size of the infarct in the treated and control animals. […] The immunohistochemical analysis involves the identification of transcription factors and surface markers expressed in early stages of myocyte development.

Q: For c1cc(CN2CCCNCCNCCCNCC2)ccc1CN1CCCNCCNCCCNCC1 [AMD3100, 1,1′-[1,4-phenylene-bis(methylene)]-bis-1,4,8,11-tetraazacyclotetradecane], which “time post-administration at which elevation of white blood cell count maximized” value (white blood cells) is on record?
A: The value was 6 h.

Q: And the “Fold change compared to T = 0, CFU-GM, agar culture, MEAN” value (“Fold change … agar culture, MEAN” for short) (CFU-GM progenitor cells; T = 1 hour)?
A: The value was 2.81 fold.

Q: What about the “Fold change … agar culture, MEAN” value (CFU-GM progenitor cells; T = 3 hours) of the same compound?
A: Its value is 8.54 fold.

Q: And the “Fold change … agar culture, MEAN” value (CFU-GM progenitor cells; T = 6 hours)?
A: The value was 17.93 fold.

Q: What about the “Fold change … agar culture, MEAN” value (CFU-GM progenitor cells; T = 9 hours) of the same compound?
A: The value was 10.25 fold.

Q: And the “Fold change … agar culture, MEAN” value (CFU-GM progenitor cells; T = 24 hours)?
A: The value was 2.08 fold.

Q: And the “fold change from T=0, progenitors BFU-E, methylcellulose culture” value ([1]; P2, T = 1 hour)?
A: The value was 1.43 fold.

Q: And the “Absolute # of Progenitors per ML, BFU-E” value ([1]; P4, T = 9 hours)?
A: The value was 1343 per ML.

Q: What about the “Fold change compared to T = 0, BFU-E, methylcellulose culture, MEAN” value (shortened to “Fold change compared to T = 0, BFU-E”) ([1]; T = 1 hour) of the same compound?
A: Its value is 1.99 fold.

Q: And the “Fold change compared to T = 0, CFU-GEMM, methylcellulose culture, MEAN” value (“Fold change compared to T = 0, CFU-GEMM” below) ([1]; T = 1 hour)?
A: Its value is 2.32 fold.

Q: What about the “Fold change compared to T = 0, CFU-GM, methylcellulose culture, MEAN” value ([1]; T = 1 hour) of the same compound?
A: The value was 4.77 fold.

Q: What about the “Fold change compared to T = 0, BFU-E” value ([1]; T = 3 hours) of the same compound?
A: Its value is 3.21 fold.

Q: And the “Fold change compared to T = 0, CFU-GEMM” value ([1]; T = 3 hours)?
A: Its value is 4.33 fold.

Q: What about the “Fold change compared to T = 0, CFU-GM, methylcellulose culture, MEAN” value ([1]; T = 3 hours) of the same compound?
A: Its value is 13.66 fold.

Q: And the “Fold change compared to T = 0, BFU-E” value ([1]; T = 6 hours)?
A: The value was 6.01 fold.

Q: What about the “Fold change compared to T = 0, CFU-GEMM” value ([1]; T = 6 hours) of the same compound?
A: Its value is 10.07 fold.

Q: And the “Fold change compared to T = 0, CFU-GM, methylcellulose culture, MEAN” value ([1]; T = 6 hours)?
A: The value was 21.71 fold.

Q: What about the “Fold change compared to T = 0, BFU-E” value ([1]; T = 9 hours) of the same compound?
A: The value was 4.34 fold.

Q: And the “Fold change compared to T = 0, CFU-GEMM” value ([1]; T = 9 hours)?
A: Its value is 5.25 fold.

Q: What about the “Fold change compared to T = 0, CFU-GM, methylcellulose culture, MEAN” value ([1]; T = 9 hours) of the same compound?
A: The value was 10.47 fold.

Q: And the “Fold change compared to T = 0, BFU-E” value ([1]; T = 24 hours)?
A: Its value is 1.26 fold.

Q: And the “Fold change compared to T = 0, CFU-GEMM” value ([1]; T = 24 hours)?
A: Its value is 1.53 fold.

Q: And the “Fold change compared to T = 0, CFU-GM, methylcellulose culture, MEAN” value ([1]; T = 24 hours)?
A: The value was 1.56 fold.

Q: And the “change in white blood cell count” value (white blood cell count)?
A: The value was “marked increase in white blood cell count”.

Q: What about the “Absolute Number Progenitors Per ML Blood, BFU-E” value ([2]; 1 mg/kg single s.c.) of the same compound?
A: The value was 62 per ML blood.

Q: And the “Absolute Number Progenitors Per ML Blood, CFU-GEMM” value ([2]; 1 mg/kg single s.c.)?
A: The value was 27.1 per ML blood.

Q: What about the “Absolute Number Progenitors Per ML Blood, CFU-GM” value ([2]; 1 mg/kg single s.c.) of the same compound?
A: The value was 424 per ML blood.

Q: What about the “Absolute Number Progenitors Per ML Blood, BFU-E” value ([2]; 2.5 mg/kg single s.c.) of the same compound?
A: The value was 98.9 per ML blood.

Q: And the “Absolute Number Progenitors Per ML Blood, CFU-GEMM” value ([2]; 2.5 mg/kg single s.c.)?
A: Its value is 70.6 per ML blood.

Q: What about the “Absolute Number Progenitors Per ML Blood, CFU-GM” value ([2]; 2.5 mg/kg single s.c.) of the same compound?
A: The value was 687.6 per ML blood.

Q: What about the “Absolute Progenitors Per ML Blood, BFU-E” value ([2]; 15″) of the same compound?
A: The value was 134.5 per ML blood.

Q: And the “Absolute Progenitors Per ML Blood, CFU-GEMM” value ([2]; 15″)?
A: The value was 90.4 per ML blood.

Q: And the “Absolute Progenitors Per ML Blood, CFU-GM” value ([2]; 15″)?
A: Its value is 791.6 per ML blood.

Q: And the “Absolute Progenitors Per ML Blood, BFU-E” value ([2]; 30″)?
A: Its value is 209.3 per ML blood.

Q: What about the “Absolute Progenitors Per ML Blood, CFU-GEMM” value ([2]; 30″) of the same compound?
A: The value was 113.5 per ML blood.

Q: And the “Absolute Progenitors Per ML Blood, CFU-GM” value ([2]; 30″)?
A: Its value is 1805.5 per ML blood.

Q: And the “Absolute Progenitors Per ML Blood, BFU-E” value ([2]; 120″)?
A: The value was 102.3 per ML blood.

Q: What about the “Absolute Progenitors Per ML Blood, CFU-GEMM” value ([2]; 120″) of the same compound?
A: Its value is 47.6 per ML blood.

Q: What about the “Absolute Progenitors Per ML Blood, CFU-GM” value ([2]; 120″) of the same compound?
A: The value was 828.7 per ML blood.

Q: And the “Absolute Number Progenitors Per ML Blood, BFU-E” value ([2]; 5 mg/kg single s.c.)?
A: The value was 92.8 per ML blood.

Q: What about the “Absolute Number Progenitors Per ML Blood, CFU-GEMM” value ([2]; 5 mg/kg single s.c.) of the same compound?
A: Its value is 69.5 per ML blood.

Q: And the “Absolute Number Progenitors Per ML Blood, CFU-GM” value ([2]; 5 mg/kg single s.c.)?
A: The value was 608.4 per ML blood.

Q: What about the “Absolute Number Progenitors Per ML Blood, BFU-E” value ([2]; 10 mg/kg single s.c.) of the same compound?
A: The value was 120.5 per ML blood.

Q: What about the “Absolute Number Progenitors Per ML Blood, CFU-GEMM” value ([2]; 10 mg/kg single s.c.) of the same compound?
A: The value was 79.8 per ML blood.

Q: What about the “Absolute Number Progenitors Per ML Blood, CFU-GM” value ([2]; 10 mg/kg single s.c.) of the same compound?
A: The value was 825.6 per ML blood.

Q: And the “Fold Change Compared to Time 0, progenitors BFU-E” value ([2]; time 2′)?
A: Its value is 2.07 fold.

Q: What about the “Fold Change Compared to Time 0, progenitors CFU-GEMM” value ([2]; time 2′) of the same compound?
A: Its value is 1.85 fold.

Q: What about the “Fold Change Compared to Time 0, progenitors GM” value ([2]; time 2′) of the same compound?
A: The value was 2.86 fold.

Q: What about the “Fold Change Compared to Time 0, progenitors BFU-E” value ([2]; time 15″) of the same compound?
A: The value was 2.72 fold.

Q: What about the “Fold Change Compared to Time 0, progenitors CFU-GEMM” value ([2]; time 15″) of the same compound?
A: Its value is 3.51 fold.

Q: What about the “Fold Change Compared to Time 0, progenitors GM” value ([2]; time 15″) of the same compound?
A: Its value is 2.73 fold.

Q: And the “Fold Change Compared to Time 0, progenitors BFU-E” value ([2]; time 30″)?
A: The value was 4.24 fold.

Q: What about the “Fold Change Compared to Time 0, progenitors CFU-GEMM” value ([2]; time 30″) of the same compound?
A: The value was 4.41 fold.

Q: What about the “Fold Change Compared to Time 0, progenitors GM” value ([2]; time 30″) of the same compound?
A: Its value is 6.23 fold.

Q: Which “time after discontinuation of the infusion at which WBC counts returned to baseline” value (WBC counts) does the source give for c1cc(CN2CCCNCCNCCCNCC2)ccc1CN1CCCNCCNCCCNCC1 [AMD-3100] here?
A: Its value is 7 days.

Q: What about the WBC count [3] of the same compound?
A: Its WBC count is 17,000 /μl.

Q: What about the “effect on cardiac remodeling, scar formation and myocardium” value (bone marrow stem cells) of the same compound?
A: Its value is “block to cardiac remodeling and scar formation”.
